The test system of data set [1] is P388 murine leukaemia resistant to doxorubicin (P388/DX). Nature of the data set: antitumor activity on P388/DX leukaemia in vivo. Also on record: species or system murine (BD2F1 mice). The note with it: for T/C (median survival time of treated mice/median survival time of controls × 100): P388/DX 10^5 cell/mouse i.v. in BD2F1 mice, compound i.v. one day after tumor transplantation, at optimal dose; for T/C (median survival time of treated mice/median survival time of controls × 100) / O.D. (Optimal Dose): in Tween 80 (10%); for O.D. (Optimal Dose): P388/DX in BD2F1 mice, i.v. one day after tumor transplantation; for in vivo activity compared with doxorubicin, in words: P388 murine leukaemia resistant to doxorubicin, BD2F1 mice.
Description: The compounds were suspended in Tween 80 (10%) and injected i.v. one day
after tumor transplantation.
^(2) Median survival time of treated mice/Median survival time of

The subject of data set [2] is LoVo/DX (colon adenocarcinoma resistant to doxorubicin). In words: cells. Particulars: for resistance index, in words: LoVo/DX vs LoVo; for cytotoxic activity against LoVo/DX, in words: both cell lines; for R.I. = Resistance Index = (IC50 LoVo/DX)/(IC50 LoVo): ratio LoVo/DX to LoVo; for R.I. = Resistance Index = (IC50 LoVo/DX)/(IC50 LoVo) / IC50 (concentration inhibiting 50% colony formation), LoVo/DX: colony assay, 4 h treatment. From the text: (§1) The citotoxic activity is reported as IC50, the concentration inhibiting 50% of colony formation, calculated on concentration response curves. Resistance index R.I. is the ratio between the IC50 on resistant cells and the IC50 on sensitive cells.

The subject of data set [3] is LoVo (colon adenocarcinoma). In words: cells. The note with it: for cytotoxic activity against LoVo, in words: both cell lines; for IC50 (concentration inhibiting 50% colony formation), LoVo: colony assay, 4 h treatment.
Description: as §1

Converted amounts (≈) assume the structure as drawn.

This note sets out measurements from US5532218A, “3'-aziridino-anthracycline derivatives” (Farmitalia Carlo Erba S.R.L., priority 1993, dated 1996).

Take `CC(=O)[C@]1(O)Cc2c(O)c3c(c(O)c2[C@@H](O[C@H]2C[C@H](N4CC4)[C@H](OS(C)(=O)=O)[C@H](C)O2)C1)C(=O)c1ccccc1C3=O` [Compound 1b, 4-demethoxy-3'-deamino-3'-[1-aziridinyl]-4'-O-methansulfonyl daunorubicin]: in data set [1], the “T/C (median survival time of treated mice/median survival time of controls × 100)” value was found to be 240%; the “O.D. (Optimal Dose)” value is 3.8 mg/kg; the “in vivo activity compared with doxorubicin, in words” value was “strikingly higher activity than doxorubicin”. Further, the IC50 in data set [2] (Homo sapiens, LoVo/DX, 4 h, read-out: IC50 (concentration inhibiting 50% colony formation), LoVo/DX) came out at 0.026 mg/L (≈ 0.0432 µM). In addition, in data set [2], the “resistance index, in words” value is given as “low resistance index”; the “cytotoxic activity against LoVo/DX, in words” value was “high activity”; the “R.I. = Resistance Index = (IC50 LoVo/DX)/(IC50 LoVo)” value (“R.I. = Resistance Index =” below) came out at 0.9. Besides, the IC50 in data set [3] (Homo sapiens, LoVo, 4 h, read-out: IC50 (concentration inhibiting 50% colony formation), LoVo) turned out to be 0.027 mg/L (≈ 0.0449 µM). In data set [3], the “cytotoxic activity against LoVo, in words” value is “high activity”.

For the molecule `COc1cccc2c1C(=O)c1c(O)c3c(c(O)c1C2=O)C[C@@](O)(C(=O)CO)C[C@@H]3O[C@H]1C[C@H](N)[C@H](O)[C@H](C)O1` [doxorubicin, reference compound], the “O.D. (Optimal Dose)” value in data set [1] is reported as 16.9 mg/kg.

With “3'-deamino-3'-[1-aziridinyl]-4'-O-methansulfonyl-14-nicotinate-doxorubicin [Compound 2a]”, in data set [1], the “T/C (median survival time of treated mice/median survival time of controls × 100)” value is on record as 200%; the “O.D. (Optimal Dose)” value was determined as 2.5 mg/kg; the “in vivo activity compared with doxorubicin, in words” value is on record as “strikingly higher activity than doxorubicin”. Moreover, in data set [2], the “resistance index, in words” value is given as “low resistance index” and the “R.I. = Resistance Index =” value worked out at 2.9. The “IC50 (concentration inhibiting 50% colony formation), LoVo/DX” value in data set [2] (LoVo/DX) came out at 0.04 mg/L. For the same molecule, the “IC50 (concentration inhibiting 50% colony formation), LoVo” value in data set [3] (LoVo) came to 0.014 mg/L.

Consider “3'-deamino-3'-[1-aziridinyl]-4'-O-methansulfonyl doxorubicin [Compound 2c]”, for which, in data set [1], the “T/C (median survival time of treated mice/median survival time of controls × 100)” value is given as 195%; the “O.D. (Optimal Dose)” value is recorded as 1.8 mg/kg; the “in vivo activity compared with doxorubicin, in words” value is “strikingly higher activity than doxorubicin”. Besides, in data set [2], the “resistance index, in words” value is “low resistance index”; the “cytotoxic activity against LoVo/DX, in words” value is given as “high activity”; the “R.I. = Resistance Index =” value was determined as 9.2. For the same molecule, the “IC50 (concentration inhibiting 50% colony formation), LoVo/DX” value in data set [2] (LoVo/DX) worked out at 0.024 mg/L. In data set [3] (LoVo), the “IC50 (concentration inhibiting 50% colony formation), LoVo” value stood at 0.0027 mg/L. Moreover, the “cytotoxic activity against LoVo, in words” value in data set [3] is given as “high activity”.

“3'-deamino-3'-[1-aziridinyl]-4'-O-methansulfonyl daunorubicin [Compound 1a]”: in data set [1], the “T/C (median survival time of treated mice/median survival time of controls × 100)” value was 190%; the “O.D. (Optimal Dose)” value is recorded as 2.2 mg/kg; the “in vivo activity compared with doxorubicin, in words” value was “strikingly higher activity than doxorubicin”. In data set [2], the “resistance index, in words” value is reported as “low resistance index”; the “cytotoxic activity against LoVo/DX, in words” value was “high activity”; the “R.I. = Resistance Index =” value amounted to 1.7. The “IC50 (concentration inhibiting 50% colony formation), LoVo/DX” value in data set [2] (LoVo/DX) was 0.022 mg/L. Further, in data set [3] (LoVo), the “IC50 (concentration inhibiting 50% colony formation), LoVo” value is 0.013 mg/L. Besides, in data set [3], the “cytotoxic activity against LoVo, in words” value was “high activity”.
